pEC50: −log10 of the molar value. Structures can show the parent of a compound that is named as a salt. Where two headings read alike, the source gives them in different places.
Experiments:
[1] = tested on: THP-1 cells; assay: Measurement of IL-1β production, hTRF protocol (second alternative procedure), THP-1 cells; assay type: cell-based, human
Summary of the method: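 THP-1 cells differentiated overnight with 50 ng/ml PMA, then plated at 50,000 cells/well in RPMI with 2% FBS onto serial compound dilutions (top final concentration 10 μM) for 2 hours at 37° C. Supernatant IL-1β measured by hTRF (antibodies at 1:40, overnight at 4° C), read at 665/615 nm against a standard curve.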

[2] = target: T1, TLR7 (Homo sapiens, UniProt Q9NYK1); assay: In vitro human TLR7 binding reporter assay (HEK-Blue, NF-kB/AP1-inducible SEAP); assay type: cell-based; details: read-out: TLR7 Agonist EC50
T1 construct: human HEK-Blue cells co-expressing a TLR7 or TLR8 gene
T1 sequence (Q9NYK1 27-1049): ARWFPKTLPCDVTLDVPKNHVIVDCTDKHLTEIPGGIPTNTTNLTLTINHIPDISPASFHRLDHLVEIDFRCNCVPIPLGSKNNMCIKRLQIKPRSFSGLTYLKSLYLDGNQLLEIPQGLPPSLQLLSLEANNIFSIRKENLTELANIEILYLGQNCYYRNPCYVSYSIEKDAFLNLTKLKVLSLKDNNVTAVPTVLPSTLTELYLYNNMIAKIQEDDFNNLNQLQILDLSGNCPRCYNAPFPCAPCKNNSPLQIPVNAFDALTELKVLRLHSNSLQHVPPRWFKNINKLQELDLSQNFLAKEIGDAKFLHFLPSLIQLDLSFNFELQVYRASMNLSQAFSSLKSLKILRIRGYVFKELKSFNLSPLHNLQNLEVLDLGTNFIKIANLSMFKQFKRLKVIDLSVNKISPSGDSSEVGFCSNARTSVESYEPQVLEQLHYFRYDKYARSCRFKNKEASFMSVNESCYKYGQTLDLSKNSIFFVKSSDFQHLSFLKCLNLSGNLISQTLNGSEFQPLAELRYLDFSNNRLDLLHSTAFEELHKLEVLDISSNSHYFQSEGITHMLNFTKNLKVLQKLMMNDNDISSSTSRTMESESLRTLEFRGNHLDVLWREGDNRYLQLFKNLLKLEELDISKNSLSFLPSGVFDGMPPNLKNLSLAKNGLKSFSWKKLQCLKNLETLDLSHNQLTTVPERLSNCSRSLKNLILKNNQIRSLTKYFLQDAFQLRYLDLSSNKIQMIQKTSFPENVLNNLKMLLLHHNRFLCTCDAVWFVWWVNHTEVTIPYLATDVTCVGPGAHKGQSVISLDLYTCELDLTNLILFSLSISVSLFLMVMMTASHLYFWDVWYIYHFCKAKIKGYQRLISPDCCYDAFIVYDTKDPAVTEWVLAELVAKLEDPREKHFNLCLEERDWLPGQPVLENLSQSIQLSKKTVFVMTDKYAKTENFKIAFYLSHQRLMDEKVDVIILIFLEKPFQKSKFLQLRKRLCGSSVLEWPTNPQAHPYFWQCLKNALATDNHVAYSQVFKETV
Summary of the method: (§1)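 Cells are seeded and grown for 24 h. Compounds or DMSO are then added and incubated 18 h at 37 °C. Quanti-Blue is added, and SEAP is read after thirty minutes. EC50 values are normalized, with RLU from 50 μM reference standard setting 100% Ymax.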

[3] = target: T2, TLR8 (Homo sapiens, UniProt Q9NR97); assay: In vitro human TLR8 binding reporter assay (HEK-Blue, NF-kB/AP1-inducible SEAP); assay type: cell-based; details: read-out: TLR8 Agonist EC50
T2 construct: human HEK-Blue cells co-expressing a TLR7 or TLR8 gene
T2 sequence (Q9NR97 27-1041): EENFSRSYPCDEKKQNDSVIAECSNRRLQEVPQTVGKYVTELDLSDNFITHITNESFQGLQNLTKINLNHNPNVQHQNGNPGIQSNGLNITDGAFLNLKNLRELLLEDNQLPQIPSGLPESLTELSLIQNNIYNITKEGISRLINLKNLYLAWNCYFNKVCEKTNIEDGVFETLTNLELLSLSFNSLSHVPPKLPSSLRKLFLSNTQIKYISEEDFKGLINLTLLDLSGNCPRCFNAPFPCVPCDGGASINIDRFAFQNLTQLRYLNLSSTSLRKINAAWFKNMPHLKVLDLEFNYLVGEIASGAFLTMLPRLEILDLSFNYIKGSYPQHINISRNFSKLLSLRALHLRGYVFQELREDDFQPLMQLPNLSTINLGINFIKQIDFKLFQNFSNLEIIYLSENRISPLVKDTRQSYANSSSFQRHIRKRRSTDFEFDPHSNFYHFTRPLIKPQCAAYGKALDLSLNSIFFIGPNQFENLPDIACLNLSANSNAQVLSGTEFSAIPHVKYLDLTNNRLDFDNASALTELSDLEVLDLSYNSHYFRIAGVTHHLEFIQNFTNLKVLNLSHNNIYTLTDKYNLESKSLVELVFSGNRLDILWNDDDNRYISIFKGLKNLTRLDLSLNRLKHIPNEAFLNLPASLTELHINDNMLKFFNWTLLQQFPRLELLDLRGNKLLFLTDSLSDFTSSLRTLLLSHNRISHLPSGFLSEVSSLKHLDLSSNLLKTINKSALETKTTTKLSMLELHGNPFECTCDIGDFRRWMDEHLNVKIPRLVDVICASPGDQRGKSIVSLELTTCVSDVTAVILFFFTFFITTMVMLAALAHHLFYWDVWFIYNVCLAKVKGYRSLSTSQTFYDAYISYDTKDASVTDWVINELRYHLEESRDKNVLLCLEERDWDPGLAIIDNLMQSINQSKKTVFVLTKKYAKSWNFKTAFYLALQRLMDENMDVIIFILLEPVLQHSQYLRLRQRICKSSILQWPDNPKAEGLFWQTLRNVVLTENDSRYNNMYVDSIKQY
Summary of the method: as §1

[4] = Homo sapiens, THP-1, IL-1β production, human cells, read-out: NLRP3 hILIB EC50
[5] = Homo sapiens, THP-1, IL-1β production, human, read-out: NLRP3 hILIB EC50

pEC50 [1, 4]	pEC50 ([2]; activity range)	pEC50 ([3]; activity range)	pEC50 [1, 5]	pEC50 ([2]; activity range class)	pEC50 ([3]; activity range class)	SMILES	also measured
–	–	–	5.64	< 4.00	< 4.00	CC(=O)N(C)CCn1cc2c(N)nc3cc(-c4ccn[nH]4)ccc3c2n1 [Example 259]	–
–	< 4.00	< 4.00	–	–	–	Nc1nc2cc(-c3cc[nH]n3)ccc2c2cn(CC(=O)N[C@@H]3CCOC3)nc12 [Example 544]	pEC50 ([1]; IL-1β production, human cells, read-out: NLRP3 hILIB EC50): 5.36
–	–	–	6.36	< 4.00	< 4.00	COCCn1cc2c(N)nc3cc(-n4cccn4)ccc3c2n1 [Example 247, 2-(2-methoxyethyl)-7-(1H-pyrazol-1-yl)-2H-pyrazolo[4,3-c]quinolin-4-amine]	–
6.47	< 4.00	< 4.00	–	–	–	Nc1nc2cc(-c3cc[nH]n3)ccc2c2cn(CC(=O)N3CCOCC3)nc12 [Example 532]	–
–	–	–	6.46	< 4.00	< 4.00	Nc1nc2cc(-c3cc[nH]n3)ccc2c2nn(CCOC(F)F)cc12 [Example 349]	–
–	–	–	–	4.70 to 6.00	< 4.00	CO[C@@H](CO)Cn1cc2c(N)nc3cc(-c4cc[nH]n4)ccc3c2n1 [Example 289, (2R)-3-[4-amino-7-(1H-pyrazol-3-yl)-2H-pyrazolo[4,3-c]quinolin-2-yl]-2-methoxypropan-1-ol, HCl]	pEC50 ([1]; IL-1β production, human, read-out: NLRP3 hILIB EC50): 6.55
–	–	–	5.90	< 4.00	< 4.00	COC[C@@H](O)Cn1cc2c(N)nc3cc(-c4cc[nH]n4)ccc3c2n1 [Example 373]	–
–	–	–	6.64	< 4.00	< 4.00	CC[C@H](O)Cn1cc2c(N)nc3cc(-c4cc[nH]n4)ccc3c2n1 [Example 367]	–
5.14	< 4.00	< 4.00	–	–	–	CC(CC(=O)NC1CCC1)n1cc2c(N)nc3cc(-c4cc[nH]n4)ccc3c2n1 (stereo not drawn) [Example 622]	–
6.07	< 4.00	< 4.00	–	–	–	CC(C)(Cn1cc2c(N)nc3cc(-c4ccn[nH]4)ccc3c2n1)C(N)=O [Example 604]	–
–	–	–	5.74	< 4.00	< 4.00	Nc1nc2cc(-c3cc[nH]n3)ccc2c2c1cnn2CCc1ccccn1 [Example 227]	–
6.60	< 4.00	< 4.00	–	–	–	CNC(=O)Cn1cc2c(N)nc3cc(-c4cc[nH]n4)ccc3c2n1 [Example 461]	–
–	–	–	6.92	< 4.00	< 4.00	CCCn1cc2c(N)nc3cc(-c4cc[nH]n4)ccc3c2n1 [Example 220]	–
–	–	–	6.24	< 4.00	< 4.00	Nc1nc2cc(-c3cc[nH]n3)ccc2c2nn(CCNC(=O)c3ccccc3)cc12 [Example 200]	–
–	–	–	7.30	4.00 to 4.70	4.00 to 4.70	Nc1nc2cc(-c3cc[nH]n3)ccc2c2cn(CCNC(=O)c3coc(Cl)n3)nc12 [Example 176]	–
–	–	–	6.28	< 4.00	< 4.00	CC(=O)NC(C)(C)Cn1cc2c(N)nc3cc(-c4ccn[nH]4)ccc3c2n1 [Example 256]	–

More lines, now with the values behind:

SMILES	pEC50 [1, 4]	pEC50 ([2]; activity range)	pEC50 ([3]; activity range)	pEC50 [1, 5]	pEC50 ([2]; activity range class)	pEC50 ([3]; activity range class)	also measured
CC(C(=O)NCCO)n1cc2c(N)nc3cc(-c4ccn[nH]4)ccc3c2n1 (stereo not drawn) [Example 568]	5.68	< 4.00	< 4.00	–	–	–	–
CC(C)(CCO)n1cc2c(N)nc3cc(-c4cc[nH]n4)ccc3c2n1 [Example 410, 3-(4-amino-7-(1H-pyrazol-3-yl)-2H-pyrazolo[4,3-c]quinolin-2-yl)-3-methylbutan-1-ol, TFA]	6.48	< 4.00	< 4.00	–	–	–	–
Nc1nc2cc(-n3cccn3)ccc2c2[nH]c(CCCO)cc12 [Example 446]	6.70	< 4.00	< 4.00	–	–	–	–
Nc1nc2cc(-c3cc[nH]n3)ccc2c2cn(CCNC(=O)c3ccccc3F)nc12 [Example 74]	–	–	–	6.60	< 4.00	4.00 to 4.70	–
CCNC(=O)CCn1cc2c(N)nc3cc(-c4cc[nH]n4)ccc3c2n1 [Example 517]	5.76	< 4.00	< 4.00	–	–	–	–
CCCn1cc2c(n1)c(N)nc1cc(-c3ccn[nH]3)ccc12 [Example 187]	–	–	–	6.66	< 4.00	< 4.00	–
Nc1nc2cc(-c3cc[nH]n3)ccc2c2nn(CCNC(=O)c3cccnc3)cc12 [Example 204]	–	–	–	5.59	< 4.00	< 4.00	–
Nc1nc2cc(-c3cc[nH]n3)ccc2c2nn(CCC(=O)NCCO)cc12 [Example 511]	5.34	< 4.00	< 4.00	–	–	–	–
CCN(CCn1cc2c(N)nc3cc(-c4ccn[nH]4)ccc3c2n1)C(C)=O [Example 272]	–	–	–	5.29	< 4.00	< 4.00	–
Nc1nc2cc(-c3cc[nH]n3)ccc2c2nn(CCOC(F)(F)F)cc12 [Example 352]	–	–	–	7.10	< 4.00	< 4.00	–
Nc1nc2cc(-c3cc[nH]n3)ccc2c2nn(Cc3ccnc(CO)c3)cc12 [Example 409]	5.83	< 4.00	< 4.00	–	–	–	–
Nc1nc2cc(-c3cc[nH]n3)ccc2c2nn(C[C@@H]3CCC(=O)N3)cc12 [Example 384]	–	–	–	6.06	< 4.00	< 4.00	–
C[C@H](O)Cn1cc2c(N)nc3cc(-c4cc[nH]n4)c(F)cc3c2n1 [Example 405]	6.16	< 4.00	< 4.00	–	–	–	–
Nc1nc2cc(-c3cc[nH]n3)ccc2c2cn(CCNC(=O)Oc3ccccc3)nc12 [Example 117, phenyl N-{2-[4-amino-7-(1H-pyrazol-3-yl)-2H-pyrazolo[3,4-c]quinolin-2-yl]ethyl}carbamate]	–	–	–	–	< 4.00	4.00 to 4.70	pEC50 ([1]; Homo sapiens, THP-1, read-out: NLRP3 hILIB EC50): 6.24
Nc1nc2cc(-c3cc[nH]n3)ccc2c2[nH]c(CN3CCOCC3)c(Cl)c12 [Example 486]	6.89	< 4.00	< 4.00	–	–	–	–
CC(C)(Cn1cc2c(N)nc3cc(-c4ccn[nH]4)ccc3c2n1)C(=O)N1CC(F)(F)C1 [Example 599]	5.66	< 4.00	< 4.00	–	–	–	–
COC1CN(Cc2cc3c(N)nc4cc(-c5cc[nH]n5)ccc4c3[nH]2)C1 [Example 479]	7.10	< 4.00	< 4.00	–	–	–	–
